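The compound was tested at five concentrations on cells cultured in 96-well plates, with a 48-hour exposure period. TGI marks complete inhibition of growth.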
Columns and labels:
Assay in all cases: NCI-60 cell line screen, 48 h
SNB-19 CNS = tested on: SNB-19 CNS
NCI-H23 lung = tested on: NCI-H23 lung
EKVX NSCLC = tested on: EKVX NSCLC
DU-145 prostate = tested on: DU-145 prostate
NCI-H460 lung = tested on: NCI-H460 lung
CAKI-1 renal = tested on: CAKI-1 renal
MCF7 breast = tested on: MCF7 breast
SF-295 CNS = tested on: SF-295 CNS
TK-10 renal = tested on: TK-10 renal
SK-MEL-2 melanoma = tested on: SK-MEL-2 melanoma
LOX IMVI melanoma = tested on: LOX IMVI melanoma
SK-MEL-28 melanoma = tested on: SK-MEL-28 melanoma
SN12C renal = tested on: SN12C renal
A498 renal = tested on: A498 renal
HS 578T breast = tested on: HS 578T breast
RXF 393 renal = tested on: RXF 393 renal
T-47D breast = tested on: T-47D breast
OVCAR-8 ovarian = tested on: OVCAR-8 ovarian
UACC-257 melanoma = tested on: UACC-257 melanoma
NCI/ADR-RES ovarian = tested on: NCI/ADR-RES ovarian
NCI-H226 lung = tested on: NCI-H226 lung
SK-MEL-5 melanoma = tested on: SK-MEL-5 melanoma
A549 NSCLC = tested on: A549 NSCLC
HOP-62 NSCLC = tested on: HOP-62 NSCLC
HCC-2998 colon = tested on: HCC-2998 colon
IGROV1 ovarian = tested on: IGROV1 ovarian
RPMI-8226 leukemia = tested on: RPMI-8226 leukemia
NCI-H522 lung = tested on: NCI-H522 lung
786-0 renal = tested on: 786-0 renal
MALME-3M melanoma = tested on: MALME-3M melanoma
OVCAR-5 ovarian = tested on: OVCAR-5 ovarian
SW-620 colon = tested on: SW-620 colon
COLO 205 colon = tested on: COLO 205 colon
SF-268 CNS = tested on: SF-268 CNS
MDA-MB-231 breast = tested on: MDA-MB-231 breast
U251 CNS = tested on: U251 CNS
K-562 leukemia = tested on: K-562 leukemia
SF-539 CNS = tested on: SF-539 CNS
HCT-116 colon = tested on: HCT-116 colon
PC-3 prostate = tested on: PC-3 prostate
SK-OV-3 ovarian = tested on: SK-OV-3 ovarian
M14 melanoma = tested on: M14 melanoma
SR leukemia = tested on: SR leukemia
UO-31 renal = tested on: UO-31 renal
UACC-62 melanoma = tested on: UACC-62 melanoma
MDA-MB-435 = tested on: MDA-MB-435
MDA-N = tested on: MDA-N
OVCAR-3 ovarian = tested on: OVCAR-3 ovarian
HL-60(TB) leukemia = tested on: HL-60(TB) leukemia
CCRF-CEM leukemia = tested on: CCRF-CEM leukemia
MOLT-4 leukemia = tested on: MOLT-4 leukemia
KM12 colon = tested on: KM12 colon
HT29 colon = tested on: HT29 colon
HOP-92 NSCLC = tested on: HOP-92 NSCLC
HCT-15 colon = tested on: HCT-15 colon
BT-549 breast = tested on: BT-549 breast
OVCAR-4 ovarian = tested on: OVCAR-4 ovarian
ACHN renal = tested on: ACHN renal
SNB-75 CNS = tested on: SNB-75 CNS

Measured: TGI

O=[N+]([O-])c1cccc(-c2nc(-c3ccccc3)c(-c3ccccc3)[nH]2)c1
not listed: KM12 colon | HT29 colon | HOP-92 NSCLC | HCT-15 colon | BT-549 breast | OVCAR-4 ovarian | ACHN renal | SNB-75 CNS
> 100 µM: all other assays above

CN(C(=O)c1ccc2c(c1)sc1c(=O)n(C)c3ccccc3c12)c1ccccc1
not listed: A498 renal | HS 578T breast | HOP-62 NSCLC | RPMI-8226 leukemia | SF-268 CNS
> 100 µM: all other assays above
